Data taken from patent US5707966A, “Antithrombotic agents” (Eli Lilly and Company, priority 1995, dated 1998).
Counter-ions that a name gives are not always drawn. Like-named read-outs stand apart in the source and are kept apart here.

What was measured:
Assay type in all cases: biochemical
[1] = target: Human Thrombin (Homo sapiens, UniProt P00734); experiment: Inhibition of amidase activity of thrombin (Kass)
[2] = target: T1, Bovine trypsin (Bos taurus, UniProt P00760); experiment: Kass with trypsin, chromogenic substrate; settings: substrate N-Benzoyl-Phe-Val-Arg-p-nitroanilide
T1 construct: Bovine trypsin is purchased; purchased Worthington Biochemicals, Freehold, N.J
T1 sequence (P00760 24-246): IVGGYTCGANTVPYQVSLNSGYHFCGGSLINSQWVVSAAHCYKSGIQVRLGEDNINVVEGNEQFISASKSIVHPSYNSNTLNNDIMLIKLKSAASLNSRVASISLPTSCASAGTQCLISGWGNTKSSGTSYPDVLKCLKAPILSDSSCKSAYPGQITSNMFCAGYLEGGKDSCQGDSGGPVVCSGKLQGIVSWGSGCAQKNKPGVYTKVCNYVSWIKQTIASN
Protocol: By substantially following the procedures described above for human thrombin, and using other human blood coagulation system serine proteases and proteases of the fibrinolytic system with the appropriate chromogenic substrates, identified below, selectivity of the compounds of the present invention with respect to the coagulation factor serine proteases and with respect to the fibrinolytic system serine proteases are evaluated as well as their substantial lack of interference with serine proteases of the fibrinolytic system. Thrombin inhibitors preferably should spare fibrinolysis induced by urokinase, tissue plasminogen activator (t-PA) and streptokinase. This would be important to the therapeutic use of such agents as an adjunct to streptokinase, t-PA or urokinase thrombolytic therapy and to the use of such agents as an endogenous fibrinolysis-sparing (with respect to t-PA and urokinase) antithrombotic agent. In addition to the lack of interference with the amidase activity of the fibrinolytic proteases, such fibrinolytic system sparing can be studied by the use of human plasma clots and their lysis by the respective fibrinolytic plasminogen activators.
Human factors X, Xa, IXa, XIa, and XIIa are purchased from Enzyme Research Laboratories, South Bend, Ind.; human urokinase from Leo Pharmaceuticals, Denmark; and recombinant activated Protein C (aPC) is prepared at Eli Lilly and Co. substantially according to U.S. Patent No. 4,981,952. Chromogenic substrates: N-Benzoyl-Ile-Glu-Gly-Arg-p-nitroanilide (for factor Xa); N-Cbz-D-Arg-Gly-Arg-p-nitroanilide (for factor IXa assay as the factor Xa substrate); Pyroglutamyl-Pro-Arg-p-nitroanilide (for Factor XIa and for aPC); H-D-Pro-Phe-Arg-p-nitroanilide (for factor XIIa); and Pyroglutamyl-Gly-Arg-p-nitroanilide (for urokinase); are purchased from KabiVitrum, Stockholm, Sweden, or from Midwest Biotech, Fishers, Ind. Bovine trypsin is purchased from Worthington Biochemicals, Freehold, N.J., and human plasma kallikrein from Kabi Vitrum, Stockholm, Sweden. Chromogenic substrate H-D-Pro-Phe-Arg-p-nitroanilide for plasma kallikrein is purchased from Kabi Vitrum, Stockholm, Sweden. N-Benzoyl-Phe-Val-Arg-p-nitroanilide, the substrate for human thrombin and for trypsin, is synthesized according to procedures described above for the compounds of the present invention, using known methods of peptide coupling from commercially available reactants or purchased from Midwest Biotech, Fishers, Ind.

[3] = test system: Human plasma; experiment: Human plasma anticoagulation, thrombin time (TT); settings: concentration required to double the thrombin time, linear extrapolation
Protocol: (§1) Dog plasma and rat plasma is obtained from conscious mixed-breed hounds (either sex, Hazelton-LRE, Kalamazoo, Mich., U.S.A.) or from anesthetized male Sprague-Dawley rats (Harlan Sprague-Dawley, Inc., Indianapolis, Ind., U.S.A.) by venipuncture into 3.8 percent citrate. Fibrinogen is prepared from in-date ACD human blood as the fraction I-2 according to previous procedures and specifications. […] Human fibrinogen is also purchased as 98 percent pure/plasmin free from American Diagnostica, Greenwich, Conn. Coagulation reagents ACTIN, Thromboplastin, and Human plasma are from Baxter Healthcare Corp., Dade Division, Miami, Fla. Bovine thrombin from Parke-Davis ([…], Mich.) is used for coagulation assays in plasma.
(§2) Coagulation assay procedures are as previously described. […] A CoAScreener coagulation instrument (American LABor, Inc.) is used for all coagulation assay measurements. The prothrombin time (PT) is measured by adding 0.05 mL saline and 0.05 mL Thromboplastin-C reagent to 0.05 mL test plasma. The activated partial thromboplastin time (APTT) is measured by incubation of 0.05 mL test plasma with 0.05 mL Actin reagent for 120 seconds followed by 0.05 mL CaCl2 (0.02M). The thrombin time (TT) is measured by adding 0.05 mL saline and 0.05 mL thrombin (10 NIH units/mL) to 0.05 mL test plasma. The compounds of Formula I are added to human or animal plasma over a wide range of concentrations to determine prolongation effects on the APTT, PT, and TT assays. Linear extrapolations are performed to estimate the concentrations required to double the clotting time for each assay.

[4] = test system: Human plasma; experiment: Human plasma anticoagulation, activated partial thromboplastin time (APTT); settings: concentration required to double the APTT, linear extrapolation
Protocol: as §1, §2

[5] = test system: Human plasma; experiment: Human plasma anticoagulation, prothrombin time (PT); settings: concentration required to double the PT, linear extrapolation
Protocol: as §1, §2

[6] = mean over a range of concentrations, […]

Compound | Kass Human Thrombin [1, 6] | Kass Trypsin [2] | Human Plasma Anticoagulation 2× Clotting time TT [3] | Human Plasma Anticoagulation 2× Clotting time APTT [4] | Human Plasma Anticoagulation 2× Clotting time PT [5] | Kass Human Thrombin [1]
CCS(=O)(=O)N[C@H](Cc1ccccc1)C(=O)N1CCC[C@H]1C(=O)NCCc1cccc(NC(=N)N)c1 [Example 37, EtSO2 -D-Phe-Pro-m-NHCH2 CH2 C6 H4 NHC(NH)NH2.HCl] | 0.02 × 10^6 (L/mole) | < 0.009 × 10^6 (L/mole) | > 9,000 ng/mL | > 9,000 ng/mL | > 9,000 ng/mL | –
Nc1ccc(CNC(=O)[C@@H]2CCCN2C(=O)[C@@H](CC2CCCCC2)NCC(=O)O)cc1 [Example 62, HO2 CCH2 -D-Cha-Pro-4-NHCH2 C6 H4 NH2.HCl] | 7.6 × 10^6 (L/mole) | – | 54 ng/mL | – | – | –
Nc1ccc(CCNC(=O)[C@@H]2CCCN2C(=O)[C@@H](CC2CCCCC2)NCC(=O)O)cc1 [Example 63, HO2 CCH2 -D-Cha-Pro-4-NHCH2 CH2 C6 H4 NH2.HCl] | 0.31 × 10^6 (L/mole) | – | 680 ng/mL | – | – | –
Cl.N=C(N)c1cc(CNC(=O)[C@@H]2CCCN2C(=O)[C@@H](CC2CCCCC2)NCC(=O)O)cs1 [Example 65, HO2 CCH2 -D-Cha-pro-4-NHCH2-2-amidinothiophene.HCl] | 4,500 × 10^6 (L/mole) | 570 × 10^6 (L/mole) | 1 ng/mL | 48 ng/mL | – | –
N=C(N)c1ccc(CNC(=O)[C@@H]2CCCN2C(=O)[C@@H](CC2CCCCC2)NCC(=O)O)nc1 [Example 66, HO2 CCH2 -D-Cha-Pro-2-NHCH2 -5-amidinopyridine.HCl] | 120 × 10^6 (L/mole) | 4.6 × 10^6 (L/mole) | 7.9 ng/mL | 180 ng/mL | 270 ng/mL | –
N=C(N)C1CCC(CNC(=O)[C@@H]2CCCN2C(=O)[C@@H](CC2CCCCC2)NCC(=O)O)NC1 (stereo partly drawn) [Example 67, HO2 CCH2 -D-Cha-pro-2-NHCH2-5-amidinopiperidine.HCl] | – | – | 34 ng/mL | 1,800 ng/mL | 1,300 ng/mL | 11
N=C(N)C1=CNC(CNC(=O)[C@@H]2CCCN2C(=O)[C@@H](CC2CCCCC2)NCC(=O)O)CC1 (stereo partly drawn) [Example 68, HO2 CCH2 -D-Cha-Pro-2-NHCH2 -5-amidino-5,6-dehydro-piperidine.HCl] | 600 × 10^6 (L/mole) | – | 4 ng/mL | 49 ng/mL | 190 ng/mL | –
N=C(N)c1ccc(CNC(=O)[C@@H]2CCCN2C(=O)[C@@H](CC2CCCCC2)NCC(=O)O)nn1 [Example 69, HO2 CCH2 -D-Cha-Pro-3-NHCH2 -6-amidinopyridazine.HCl] | 340 × 10^6 (L/mole) | 3.7 × 10^6 (L/mole) | 5 ng/mL | 110 ng/mL | 220 ng/mL | –
N=C(N)N1CC=C(CNC(=O)[C@@H]2CCCN2C(=O)[C@@H](CC2CCCCC2)NCC(=O)O)CC1 [Example 70, HO2 CCH2 -D-Cha-Pro-4-NHCH2 -1-amidino-3,4-dehydro-piperidine.HCl] | 430 × 10^6 (L/mole) | 9.8 × 10^6 (L/mole) | 2 ng/mL | 160 ng/mL | 180 ng/mL | –
N=C(N)c1ccc(CNC(=O)[C@@H]2CCCN2C(=O)[C@@H](CC2CCCCC2)NCC(=O)O)c(F)c1 [Example 71, HO2 CCH2 -D-Cha-Pro-4-NHCH2 -3-F-benzamidine.HCl] | 1,400 × 10^6 (L/mole) | 240 × 10^6 (L/mole) | 1 ng/mL | 89 ng/mL | 150 ng/mL | –
N=C(N)c1cc(F)c(CNC(=O)[C@@H]2CCCN2C(=O)[C@@H](CC2CCCCC2)NCC(=O)O)c(F)c1 [Example 72, HO2 CCH2 -D-Cha-Pro-4-NHCH2 -3,5-F2 -benzamidine.HCl] | 2,300 × 10^6 (L/mole) | 280 × 10^6 (L/mole) | 1 ng/mL | 160 ng/mL | 160 ng/mL | –
Nc1cc(CNC(=O)[C@@H]2CCCN2C(=O)[C@@H](CC2CCCCC2)NCC(=O)O)ccn1 [Example 73, HO2 CCH2 -D-Cha-Pro-4-NHCH2 -2-aminopyridine.HCl] | 28 × 10^6 (L/mole) | – | 21 ng/mL | 340 ng/mL | 330 ng/mL | –
Nc1ccc(CNC(=O)[C@@H]2CCCN2C(=O)[C@@H](CC2CCCCC2)NCC(=O)O)cn1 [Example 74, HO2 CCH2 -D-Cha-Pro-5-NHCH2 -2-aminopyridine.HCl] | 29 × 10^6 (L/mole) | – | 20 ng/mL | 420 ng/mL | 350 ng/mL | –
Nc1ccc(CCNC(=O)[C@@H]2CCCN2C(=O)[C@@H](CC2CCCCC2)NCC(=O)O)cn1 [Example 75, HO2 CCH2 -D-Cha-Pro-5-NHCH2 CH2 -2-aminopyridine.HCl] | 0.45 × 10^6 (L/mole) | – | – | – | – | –
Nc1cc(CCNC(=O)[C@@H]2CCCN2C(=O)[C@@H](CC2CCCCC2)NCC(=O)O)ccn1 [Example 76, HO2 CCH2 -D-Cha-Pro-4-NHCH2 CH2 -2-aminopyridine.HCl] | 12 × 10^6 (L/mole) | 0.36 × 10^6 (L/mole) | 29 ng/mL | 490 ng/mL | 560 ng/mL | –
Nc1ccc(CNC(=O)[C@@H]2CCCN2C(=O)[C@@H](CC2CCCCC2)NCC(=O)O)cc1F [Example 77, HO2 CCH2 -D-Cha-Pro-4-NHCH2 -2-F-aniline.HCl] | – | – | 53 ng/mL | 1,600 ng/mL | 890 ng/mL | 11
CCS(=O)(=O)N[C@H](CC1CCCCC1)C(=O)N1CCC[C@H]1C(=O)NCc1ccc(N)cc1F [Example 82, EtSO2 -D-Cha-Pro-4-NHCH2 -3-F-C6 H3 NH2.HCl] | 5.0 × 10^6 (L/mole) | – | 130 ng/mL | 3,800 ng/mL | 3,000 ng/mL | –
